Laboratory results as given in ChEMBL document CHEMBL1141701, “N-alkyl-5H-pyrido[4,3-b]indol-1-amines and derivatives as novel urotensin-II receptor antagonists” (Bioorg Med Chem Lett, 2008).
Converted amounts (≈) assume the structure as drawn.

Tests used:
Urotensin II receptor = biological target: T1, Urotensin II receptor (Felis catus, UniProt Q533H1); experiment: Displacement of [125I]human urotensin 2 from cat urotensin 2 receptor expressed in HEK293 cells; format: cell-based
T1 sequence (Q533H1 whole entry): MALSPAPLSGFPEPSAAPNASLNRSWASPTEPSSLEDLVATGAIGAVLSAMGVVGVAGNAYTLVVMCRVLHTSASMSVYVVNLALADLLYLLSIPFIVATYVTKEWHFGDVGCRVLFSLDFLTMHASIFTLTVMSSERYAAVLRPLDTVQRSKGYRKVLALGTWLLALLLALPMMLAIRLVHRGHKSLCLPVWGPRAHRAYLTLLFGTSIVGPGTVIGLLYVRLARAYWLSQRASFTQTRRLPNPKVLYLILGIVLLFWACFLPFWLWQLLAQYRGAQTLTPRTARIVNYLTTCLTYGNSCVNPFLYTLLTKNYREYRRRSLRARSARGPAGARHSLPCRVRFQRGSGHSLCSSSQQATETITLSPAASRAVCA

Urotensin-2 receptor [1] = biological target: T2, Urotensin-2 receptor (Homo sapiens, UniProt Q9UKP6); experiment: Displacement of [125I]human urotensin 2 from human recombinant urotensin 2 receptor expressed in HEK293 cells; format: cell-based
T2 sequence (Q9UKP6 whole entry): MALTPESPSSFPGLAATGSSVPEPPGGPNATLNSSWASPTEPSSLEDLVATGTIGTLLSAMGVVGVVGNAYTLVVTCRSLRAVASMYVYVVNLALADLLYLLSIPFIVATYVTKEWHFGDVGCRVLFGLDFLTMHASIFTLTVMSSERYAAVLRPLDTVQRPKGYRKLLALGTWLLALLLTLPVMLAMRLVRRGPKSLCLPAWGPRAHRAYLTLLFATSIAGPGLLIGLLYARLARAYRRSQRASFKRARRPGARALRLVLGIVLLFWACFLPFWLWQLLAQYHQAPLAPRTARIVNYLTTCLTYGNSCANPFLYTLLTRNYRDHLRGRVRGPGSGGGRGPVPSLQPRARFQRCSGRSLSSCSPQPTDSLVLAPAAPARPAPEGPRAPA

Urotensin-2 receptor [2] = biological target: T2, Urotensin-2 receptor; experiment: Antagonist activity at human urotensin 2 receptor by FLIPR assay; format: functional; conditions: read-out: pA2 (converted)
Cytochrome P450 2D6 = Cytochrome P450 2D6 (Homo sapiens, UniProt P10635); experiment: Inhibition of CYP2D6; format: ADME
[3] = Blood clearance in rat at 0.49 mg/kg, iv or 0.97 mg/kg, po; format: ADME, organism-based
[4] = Selectivity for human urotensin 2 receptor over adrenergic Alpha-1B receptor
[5] = Aqueous solubility in phosphate buffer by HPLC; format: physicochemical
[6] = Selectivity for human urotensin 2 receptor over histamine H1 receptor
[7] = Selectivity for human urotensin 2 receptor over muscarinic M4 receptor
[8] = biological target: Voltage-gated inwardly rectifying potassium channel KCNH2 (Homo sapiens, UniProt Q12809); experiment: Inhibition of human ERG
[9] = Selectivity for human urotensin 2 receptor over muscarinic M5 receptor
[10] = Selectivity for human urotensin 2 receptor over 5HT2C receptor
[11] = Permeability across artificial phospholipid membrane by HPLC; format: ADME; conditions: not told; read-out: permeability
[12] = Selectivity for human urotensin 2 receptor over 5HT6 receptor
Urotensin-2 receptor [13] = biological target: T2, Urotensin-2 receptor; experiment: Antagonist activity at human recombinant urotensin 2 receptor expressed in HEK293 cells assessed as inhibition of […] calcium mobilization by FLIPR assay; format: functional, cell-based
[14] = Selectivity for human urotensin 2 receptor over adrenergic beta2 receptor
[15] = Selectivity for human urotensin 2 receptor over adrenergic alpha1A receptor
[16] = Selectivity for human urotensin 2 receptor over muscarinic M2 receptor
[17] = Half life in rat at 0.49 mg/kg, iv or 0.97 mg/kg, po; format: ADME, organism-based; conditions: in vivo
Homo sapiens = organism: Homo sapiens; experiment: Selectivity for human urotensin 2 receptor over human ERG
[18] = Selectivity for human urotensin 2 receptor over muscarinic M1 receptor
[19] = Selectivity for human urotensin 2 receptor over 5HT4A receptor
[20] = Selectivity for human urotensin 2 receptor over histamine H3 receptor
[21] = Selectivity for human urotensin 2 receptor over adenosine A2a receptor
[22] = Selectivity for human urotensin 2 receptor over 5HT3 receptor
Cytochrome P450 3A4 = Cytochrome P450 3A4 (Homo sapiens, UniProt P08684); experiment: Inhibition of CYP3A4; format: ADME
[23] = Selectivity for human urotensin 2 receptor over 5HT7 receptor
[24] = Selectivity for human urotensin 2 receptor over 5HT1D receptor
[25] = Selectivity for human urotensin 2 receptor over 5HT2A receptor
[26] = Selectivity for human urotensin 2 receptor over dopamine D2 receptor
[27] = Selectivity for human urotensin 2 receptor over 5HT1B receptor
[28] = Selectivity for human urotensin 2 receptor over 5HT1A receptor
[29] = Selectivity for human urotensin 2 receptor over adenosine A2b receptor
[30] = Oral bioavailability in rat at 0.97 mg/kg; format: ADME, organism-based; conditions: in vivo
[31] = Selectivity for human urotensin 2 receptor over dopamine D3 receptor
[32] = Selectivity for human urotensin 2 receptor over adenosine A1 receptor
[33] = Selectivity for human urotensin 2 receptor over CXCR2
[34] = Selectivity for human urotensin 2 receptor over muscarinic M3 receptor

Chain of Cytochrome P450 3A4 (P08684 whole entry): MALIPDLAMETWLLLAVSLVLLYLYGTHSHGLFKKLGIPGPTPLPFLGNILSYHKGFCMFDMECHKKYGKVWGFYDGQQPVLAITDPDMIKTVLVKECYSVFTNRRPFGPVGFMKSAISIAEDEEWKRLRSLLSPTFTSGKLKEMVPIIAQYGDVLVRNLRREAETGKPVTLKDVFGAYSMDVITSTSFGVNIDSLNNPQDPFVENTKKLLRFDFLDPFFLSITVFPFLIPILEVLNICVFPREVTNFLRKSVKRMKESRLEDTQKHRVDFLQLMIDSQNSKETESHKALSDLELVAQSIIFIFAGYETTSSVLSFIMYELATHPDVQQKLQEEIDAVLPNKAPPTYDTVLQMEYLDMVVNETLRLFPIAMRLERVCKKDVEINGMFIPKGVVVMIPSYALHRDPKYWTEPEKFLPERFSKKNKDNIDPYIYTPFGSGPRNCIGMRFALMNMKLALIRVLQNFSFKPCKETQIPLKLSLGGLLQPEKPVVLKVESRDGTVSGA
Chain of Cytochrome P450 2D6 (P10635 whole entry): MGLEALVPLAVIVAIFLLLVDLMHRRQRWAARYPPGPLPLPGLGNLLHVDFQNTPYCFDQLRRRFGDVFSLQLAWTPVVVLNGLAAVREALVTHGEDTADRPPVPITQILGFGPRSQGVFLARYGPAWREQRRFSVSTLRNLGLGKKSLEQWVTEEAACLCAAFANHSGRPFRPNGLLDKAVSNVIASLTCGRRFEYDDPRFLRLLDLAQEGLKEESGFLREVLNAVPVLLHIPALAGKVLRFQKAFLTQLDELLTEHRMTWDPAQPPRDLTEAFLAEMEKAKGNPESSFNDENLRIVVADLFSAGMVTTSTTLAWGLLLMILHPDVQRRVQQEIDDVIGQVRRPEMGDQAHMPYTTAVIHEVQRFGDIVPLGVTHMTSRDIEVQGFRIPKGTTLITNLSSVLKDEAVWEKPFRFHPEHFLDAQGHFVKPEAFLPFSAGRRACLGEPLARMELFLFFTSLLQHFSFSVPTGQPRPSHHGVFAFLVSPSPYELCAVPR
Chain of Voltage-gated inwardly rectifying potassium channel KCNH2 (Q12809 whole entry): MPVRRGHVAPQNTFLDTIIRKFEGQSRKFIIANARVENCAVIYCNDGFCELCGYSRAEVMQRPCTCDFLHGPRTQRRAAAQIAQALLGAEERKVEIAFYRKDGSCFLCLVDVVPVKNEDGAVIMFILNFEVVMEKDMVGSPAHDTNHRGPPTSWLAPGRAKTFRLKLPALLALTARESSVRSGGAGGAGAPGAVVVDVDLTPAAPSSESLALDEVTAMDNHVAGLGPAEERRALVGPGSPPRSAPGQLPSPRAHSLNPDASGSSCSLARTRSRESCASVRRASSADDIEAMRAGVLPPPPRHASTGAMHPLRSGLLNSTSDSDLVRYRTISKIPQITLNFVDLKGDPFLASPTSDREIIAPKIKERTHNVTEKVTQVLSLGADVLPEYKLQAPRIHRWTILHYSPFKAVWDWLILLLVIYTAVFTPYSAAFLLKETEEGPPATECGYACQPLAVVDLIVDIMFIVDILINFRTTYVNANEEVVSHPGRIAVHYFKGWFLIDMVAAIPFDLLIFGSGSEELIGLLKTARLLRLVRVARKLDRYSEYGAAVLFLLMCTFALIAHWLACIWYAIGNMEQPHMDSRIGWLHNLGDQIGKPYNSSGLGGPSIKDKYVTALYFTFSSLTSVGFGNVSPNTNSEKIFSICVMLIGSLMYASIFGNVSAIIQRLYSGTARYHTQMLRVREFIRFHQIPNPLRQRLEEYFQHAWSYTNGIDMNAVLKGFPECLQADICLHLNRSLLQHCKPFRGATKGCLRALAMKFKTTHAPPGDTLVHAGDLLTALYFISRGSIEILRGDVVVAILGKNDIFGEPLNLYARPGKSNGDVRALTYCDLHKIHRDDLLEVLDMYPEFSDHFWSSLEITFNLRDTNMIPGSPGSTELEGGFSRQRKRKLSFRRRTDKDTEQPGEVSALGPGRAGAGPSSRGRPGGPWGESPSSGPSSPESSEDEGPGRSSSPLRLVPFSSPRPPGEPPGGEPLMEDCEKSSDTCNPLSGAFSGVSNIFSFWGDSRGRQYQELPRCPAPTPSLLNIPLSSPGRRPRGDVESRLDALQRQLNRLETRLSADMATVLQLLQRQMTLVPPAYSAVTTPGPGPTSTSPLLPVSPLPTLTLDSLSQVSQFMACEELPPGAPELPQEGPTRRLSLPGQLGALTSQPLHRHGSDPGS

SMILES: CCCCCCNc1nccc2[nH]c3ccccc3c12
- Ki (Urotensin II receptor): 0.2 µM
- Ki (Urotensin-2 receptor [1]): 0.00631 µM

SMILES: COCCN(C)c1nccc2[nH]c3ccccc3c12
- Ki (Urotensin-2 receptor [1]): > 7.94 µM

SMILES: CCC(C)CNc1nccc2[nH]c3ccccc3c12 (centres undefined)
- Ki (Urotensin II receptor): 1.26 µM
- Ki (Urotensin-2 receptor [1]): 0.01 µM
- Kb (Urotensin-2 receptor [2]): 0.1 µM

SMILES: c1ccc2c(c1)[nH]c1nccc(NCC3CC3)c12
- Ki (Urotensin-2 receptor [1]): 0.1 µM

SMILES: c1ccc2c(c1)[nH]c1ccnc(NCC3CC3)c12
- Ki (Urotensin II receptor): 2.51 µM
- Ki (Urotensin-2 receptor [1]): 0.00631 µM
- Kb (Urotensin-2 receptor [2]): 0.126 µM

SMILES: c1ccc2c(c1)[nH]c1ccnc(NC3CCCCC3)c12
- Ki (Urotensin-2 receptor [1]): > 7.94 µM

SMILES: CCCCNc1ccnc2[nH]c3ccccc3c12
- Ki (Urotensin-2 receptor [1]): 0.0794 µM

SMILES: c1ccc(CNc2nccc3[nH]c4ccccc4c23)cc1
- Ki (Urotensin II receptor): 1 µM
- Ki (Urotensin-2 receptor [1]): 0.0126 µM
- Kb (Urotensin-2 receptor [2]): 0.02 µM

SMILES: CCCCNc1ccnc2[nH]c3ccc(Cl)cc3c12
- Ki (Urotensin-2 receptor [1]): 0.0501 µM

SMILES: CCCCCNc1nccc2[nH]c3ccccc3c12
- Ki (Urotensin II receptor): 0.398 µM
- Ki (Urotensin-2 receptor [1]): 0.00398 µM

SMILES: c1ccc2c(c1)[nH]c1ccnc(NCC3CCCCC3)c12
- Ki (Urotensin-2 receptor [1]): 0.01 µM

SMILES: CCOCCNc1nccc2[nH]c3ccccc3c12
- Ki (Urotensin-2 receptor [1]): 0.0126 µM

SMILES: CC(=O)NCCNc1nccc2[nH]c3ccccc3c12
- Ki (Urotensin-2 receptor [1]): > 7.94 µM

SMILES: CC(C)CCNc1nccc2[nH]c3ccccc3c12
- Ki (Urotensin II receptor): 1.58 µM
- Ki (Urotensin-2 receptor [1]): 0.0126 µM

SMILES: CCCCNc1ccnc2[nH]c3ccc(C)cc3c12
- Ki (Urotensin-2 receptor [1]): 0.0631 µM

SMILES: CCCNc1nccc2[nH]c3ccccc3c12
- Ki (Urotensin-2 receptor [1]): 0.0251 µM

SMILES: c1ccc2c(c1)[nH]c1ccnc(NCCN3CCOCC3)c12
- Ki (Urotensin-2 receptor [1]): > 7.94 µM

SMILES: c1ccc2c(c1)[nH]c1nccc(NCC3CCCCC3)c12
- Ki (Urotensin-2 receptor [1]): 0.794 µM

SMILES: CCCCNc1nccc2c1c1ccccc1n2C
- Ki (Urotensin II receptor): 1 µM
- Ki (Urotensin-2 receptor [1]): 0.0501 µM

SMILES: c1ccc2c(c1)[nH]c1ccnc(NCC3CCCO3)c12 (centres undefined)
- Ki (Urotensin-2 receptor [1]): 0.0794 µM

SMILES: c1csc(CNc2nccc3[nH]c4ccccc4c23)c1
- Ki (Urotensin II receptor): 3.16 µM
- Ki (Urotensin-2 receptor [1]): 0.0251 µM
- Kb (Urotensin-2 receptor [2]): 0.158 µM

SMILES: CN(C)CCNc1nccc2[nH]c3ccccc3c12
- Ki (Urotensin-2 receptor [1]): > 7.94 µM

SMILES: c1ccc(Nc2nccc3[nH]c4ccccc4c23)cc1
- Ki (Urotensin-2 receptor [1]): > 7.94 µM

SMILES: CCCCNc1nccc2c1c1ccccc1n2Cc1ccccc1
- Ki (Urotensin-2 receptor [1]): 3.98 µM

SMILES: NC(=O)CCNc1nccc2[nH]c3ccccc3c12
- Ki (Urotensin-2 receptor [1]): > 7.94 µM

SMILES: CCCC(C)Nc1nccc2[nH]c3ccccc3c12 (centres undefined)
- Ki (Urotensin-2 receptor [1]): 0.794 µM

SMILES: c1ccc(CCNc2nccc3[nH]c4ccccc4c23)cc1
- Ki (Urotensin-2 receptor [1]): 0.1 µM

SMILES: CCCCNc1ccnc2[nH]c3c(OC)cccc3c12
- Ki (Urotensin-2 receptor [1]): 0.0316 µM

SMILES: CCCCNc1nccc2[nH]c3ccccc3c12
- IC50 (Cytochrome P450 2D6): 0.00794 µM
- clearance [3]: 6.6 L/h/kg
- Selectivity ratio [4]: 100
- solubility [5]: 195 µM (≈ 46.7 µg/mL)
- Selectivity ratio [6]: 100
- Selectivity ratio [7]: 100
- IC50 [8]: 1.58 µM
- Ki (Urotensin II receptor): 0.631 µM
- Selectivity ratio [9]: 100
- Selectivity ratio [10]: 100
- Ki (Urotensin-2 receptor [1]): 0.00398 µM
- Kb (Urotensin-2 receptor [2]): 0.1 µM
- Papp [11]: 470 nm/s
- Selectivity ratio [12]: 100
- IC50 (Urotensin-2 receptor [13]): 0.501 µM
- Selectivity ratio [14]: 100
- Selectivity ratio [15]: 100
- Selectivity ratio [16]: 100
- half-life [17]: 1.3 h
- Selectivity ratio (Homo sapiens): 400
- Selectivity ratio [18]: 100
- Selectivity ratio [19]: 100
- Selectivity ratio [20]: 100
- Selectivity ratio [21]: 100
- Selectivity ratio [22]: 100
- IC50 (Cytochrome P450 3A4): 0.1 µM
- Selectivity ratio [23]: 100
- Selectivity ratio [24]: 100
- Selectivity ratio [25]: 100
- Selectivity ratio [26]: 100
- Selectivity ratio [27]: 100
- Selectivity ratio [28]: 100
- Selectivity ratio [29]: 100
- bioavailability [30]: 11%
- Selectivity ratio [31]: 100
- Selectivity ratio [32]: 100
- Selectivity ratio [33]: 100
- Selectivity ratio [34]: 100

SMILES: CCCCN(CCCC)c1nccc2[nH]c3ccccc3c12
- Ki (Urotensin-2 receptor [1]): 0.794 µM

SMILES: CCCCNc1nccc2c1c1ccccc1n2C(C)C
- Ki (Urotensin-2 receptor [1]): 0.0631 µM

SMILES: CCNc1nccc2[nH]c3ccccc3c12
- Ki (Urotensin-2 receptor [1]): 1.58 µM

SMILES: c1ccc2c(c1)[nH]c1ccnc(NC3CC3)c12
- Ki (Urotensin-2 receptor [1]): 2.51 µM

SMILES: COCCNc1nccc2[nH]c3ccccc3c12
- Ki (Urotensin-2 receptor [1]): 0.02 µM

SMILES: COCCNc1ccnc2[nH]c3ccccc3c12
- Ki (Urotensin-2 receptor [1]): 0.316 µM
